In patent US11466032B2, “Cytotoxic agents” (FEMTOGENIX LIMITED, priority 2017, dated 2022):

Legend:
[1] = test system: linear 32P-end-labelled HexA DNA; test: DNA interstrand cross-linking assay (denaturing polyacrylamide gel); format: biochemical; details: overnight incubation at 37° C.
Experimental: The ability of 26 and 34 to cross-link DNA was determined using an assay involving linear double-stranded HexA. TyrT and MS1 DNA fragments (FIG. 5).
Following denaturation conditions (treatment with formamide and heating at 65° C. for 5 min) the DNA strands were completely separated (see control C2, FIG. 6). The presence of an interstrand cross-link holds the denatured strands in close proximity, and cross-linked adducts therefore run as double-stranded DNA on polyacrylamide gel. Talirine and 34 were tested at >10 different concentrations, and the assay was repeated twice. […] C1 and C2 represent controls where C1 is DNA without formic acid, and C2 is DNA without formic acid, but heated thereby forming single strands. Cross-links are clearly detectable at concentrations as low as 10 nM. Using the same assay, the PBD dimer Talirine was also shown to cross-link DNA down to a concentration of 10 nM (FIG. 7).
The preparation of the DNA fragments (FIG. 5) has been previously described^[4]. Briefly, the sequence which had been cloned into the BamHI site of pUC18 was obtained by cutting with HindIII and EcoRI. Radiolabelled DNA fragments were prepared by filling in the 3′-end of the HindIII site with [α-^32P]dATP using Klenow DNA polymerase (exo-).
The radiolabelled DNA fragment was separated from the remainder of the plasmid DNA on a 6% non-denaturing polyacrylamide gel. […]

[2] = test system: HexA and MS1 DNA fragments; test: DNA footprinting; format: binding; details: X is any base, Y is G or C, W is A or T; overnight incubation
Experimental: The sequence selectivity of 26 and 34 was investigated using a modification of the previously established DNA footprinting assay^25. Following an overnight incubation of the ligand-DNA complexes, the mixture was mixed with strand separation buffer containing 10 mM EDTA, 10 mM NaOH, 0.1% bromophenol blue, 80% formamide and incubated at 100° C. for 3 min. The mixture was then immediately cooled on ice and run on an 8% denaturing gel.
Footprinting reactions were performed as previously described^[5] using the DNA fragments HexA and HexB, which together contain all 64 symmetrical hexanucleotide sequences^[6], and MS1 that contains all possible […] tetranucleotide sequences^[7]. The DNA fragments were obtained by cutting the parent plasmids with HindIII and SacI (for HexA and MS1) or EcoRI and PstI (for HexB), and were labelled at the 3′-end of the HindIII or EcoRI sites with [α-^32P]dATP using reverse transcriptase or exo-Klenow fragment. After gel purification, the radiolabelled DNA was dissolved in 10 mM Tris-HCl pH 7.5 containing 0.1 mM EDTA, at a concentration of about 10 c.p.s per μL as determined on a hand held Geiger counter. 1.5 μL of radiolabelled DNA was mixed with 1.5 μL ligand that had been freshly diluted in 10 mM Tris-HCl pH 7.5, containing 10 mM NaCl. […]

Structure (SMILES): CNS(=O)(=O)c1ccc(C2=CCN3C(=O)c4cc(OC)c(OCc5cccc(COc6cc7c(cc6OC)C(=O)N6CC=C(c8ccc(S(=O)(=O)NC)cc8)C[C@H]6C=N7)n5)cc4N=C[C@@H]3C2)cc1 [Compound 34, 4,4′-((6aS,6a′S)-((Pyridine-2,6-diylbis(methylene))bis(oxy))bis(2-methoxy-12-oxo-6a,7,10,12-tetrahydrobenzo[e]pyrido[1,2-α][1,4]diazepine-3,8-diyl))bis(N-methylbenzenesulfonamide)]
- lowest concentration at which DNA interstrand cross-links are detectable [1]: 10 nM
- general code of the footprints (preferred binding sites) [2]: XYWWYWYX
